Measured values: patent publication US11366090B2, “Method for the inactivation and inactivation testing of xeno antigens in foods of animal origin, particularly for milk and derivatives, and in foods of plant origin, particularly for milk substitutes based on soy and/or rice” (Biocompatibility Innovation S.R.L., priority 2016, dated 2022)

Assays:
alpha-Gal epitope [1] = assay: inactivation test of alpha-Gal epitopes in samples of milk substitutes based on rice and soya (M86 antibody incubation, centrifugation, alpha-Gal/HSA ELISA); format: biochemical; settings: milk substitute based on rice and soya, caffeic acid 0.3% w/v (method: 0.5±0.05% w/v), ambient temperature
Experimental: Three solutions are made up, using a milk substitute based on rice and soya as solvent, for example a substitute comprising 17% rice, 17% soy seeds, in a total volume of 50 ml. In the present example, which is non-limiting of the invention, extracts of “Lippia citriodora” are used, titrated at 93% verbascoside. […] These solutions are left to act under moderate but constant stirring, for a total of 3±0.1 hours at 25±5° C. Samples are taken at 30±2 minutes, 1±0.1 hour and 3±0.1 hours. An aliquot of milk is taken from each sampling, comprised between 200 and 500 ul, and preferably a dose of 300 ul, to which a buffer is added, Na3C6H5O7 at pH 7.0±0.5, until a final volume is reached comprised between 1000 and 1500 ul, and preferably a final volume of 1500 ul. Then a murine antibody, directed against the alpha-Gal epitope, is added, for example an IgM clone called M86, at the preferable concentration of [1:50] w/v and the whole is incubated for 120±10 minutes at 37±2° C. under constant but moderate stirring. At the end the samples are subjected to centrifugation at 10,000×g for 30±2 minutes at 4±2° C. During incubation with the M86 antibody, a plate with 96 wells is prepared with 100 ul per well of alpha-Gal/HSA (Human Serum Albumin) at 5 ug/ml in a PBS buffer (pH 7.0±0.5). The plate thus prepared is incubated for 60±10 minutes at a temperature comprised between 30° C.-40° C., although it is preferable to stabilize everything at 37±2.0° C. Then 3 washes are carried out with 300 ul per well of PBS (physiological pH) at ambient temperature. The first wash is left to act for 5 minutes, the two subsequent washes for 3 minutes each. […] Then 50 ul per well of the stop solution is added, which is constituted by H2SO4 2M and the plate is then read in a plate reader at the wavelength of 450 nm. The test of inactivation is based on the comparison between the absorbance values of column number 1 which constitutes the blank value (100% of antibody available) and the respective columns of the samples. […]

alpha-Gal epitope [2] = assay: inactivation test of alpha-Gal epitopes in samples of cow's milk (M86 antibody incubation, centrifugation, alpha-Gal/HSA ELISA); format: biochemical; settings: 0.5% w/v, ambient temperature
Experimental: incubating samples of milk with the addition of an antibody aimed at the alpha-Gal epitope that is present in the milk; in such embodiment, the antibody is for example a murine monoclonal antibody M86; it should be understood that all mono- or polyclonal antibodies and/or antibodies belonging to different isotypes, which have shown a proven specificity against the antigen in question, can be used; in general, the anti-xenoantigen antibody is an antibody specifically aimed at the alpha-Gal epitope;
separating, by way of centrifugation, the resulting immune complex created owing to the bond between antigen and antibody;
preparing a plate with 96 wells for the E.L.I.S.A. text with coating comprising the xenoantigen epitope, i.e. an alpha-Gal/human serum albumin coating;
adding, in the wells, supernatant taken from the milk samples subjected to centrifuge; the supernatant contains the part of anti-alpha-Gal antibody that has not bonded with epitopes; as is known, a column of wells is adapted to define a reference value, known in the jargon as ‘blank value’, that corresponds to the maximum signal between antibody and epitopes,
completing the plate with a secondary antibody conjugated with an enzyme, or other molecule for qualitative or quantitative evaluation through colorimetric assay, adapted to chromatically highlight the presence if any of the anti-alpha-Gal antibody; in the present embodiment, the secondary antibody is constituted by a rabbit polyclonal anti-mouse antibody, conjugated with the peroxidase enzyme, or with other types, enzymatic or otherwise, capable of providing qualitative or quantitative indications through colorimetric assay;
reading the plate, determining the presence of anti-alpha-Gal antibody that has remained free in the solutions of the samples;
comparing the absorbance values detected in the column that defines the reference values with the values detected in the other columns of samples of the plate.
Two solutions are made up with different concentrations of phenylpropanoid, using the milk as solvent in a total volume of 50 ml. In this specific example, which obviously should be understood to be non-limiting of the invention, an extract of “Lippia Citriodora” was used, titrated at 93% verbascoside. […]
These solutions are left to act under moderate but constant stirring, for a total of […] at 25±5° C.
Samples are taken at 30±2 minutes, 1±0.1 hour and 3±0.1 hours.
An aliquot of milk is taken from each sampling, comprised between 200 ul and 500 ul, and preferably 300 ul, to which a buffer is added, Na3C6H5O7 0.2M at pH 7.0±0.5, until a final volume is reached comprised between 1000 ul and 1500 ul, and preferably a final volume of 1500 ul.
Then a murine antibody, directed against the alpha-Gal epitope, is added (in the present example this is an IgM clone called M86), at the preferable concentration of [1:50] w/v and the whole is incubated for 120±10 minutes at 37±2° C. under constant but moderate stirring.
At the end the samples are subjected to centrifugation at 10,000×g for 30±2 minutes at 4±2° C.
During incubation with the M86 antibody, a plate with 96 wells is prepared with 100 ul per well of alpha-Gal/HSA (Human Serum Albumin) at 5 ug/ml in a PBS buffer (pH 7.0±0.5).
The plate thus prepared is incubated for 60±10 minutes at a temperature comprised between 30° C.-40° C., although it is preferable to stabilize everything at 37° C.±2.0° C.
Then 3 washes are carried out with 300 ul per well of PBS (physiological pH) at ambient temperature.
The first wash is left to act for 5 minutes, the two subsequent washes for 3 minutes each.
The blocking is done with 300 ul per well of 2±0.5% of serum albumin in PBS, followed by covering the plate with protective film and incubation for 60±10 minutes at ambient temperature, in darkness.
Subsequently 3 washes are performed as above. […]

## O=C(O)/C=C/c1ccc(O)c(O)c1 [caffeic acid]
alpha-Gal epitope [1]; after 30 minutes
  antigens inactivated: 61.8±2.8%
alpha-Gal epitope [1]; after 1 hour
  antigens inactivated: 78.3±4.1%
alpha-Gal epitope [1]; after 3 hours of incubation
  antigens inactivated: 89.2±1.8%
alpha-Gal epitope [2]; after 30 minutes
  antigens inactivated: 51.2±4.2%
alpha-Gal epitope [2]; after 1 hour
  antigens inactivated: 61.1±2.6%
alpha-Gal epitope [2]; after 3 hours of incubation
  antigens inactivated: 72.3±2.8%

## O=C(OC[C@H]1O[C@@H](OC(=O)c2cc(O)c(O)c(OC(=O)c3cc(O)c(O)c(O)c3)c2)[C@H](OC(=O)c2cc(O)c(O)c(OC(=O)c3cc(O)c(O)c(O)c3)c2)[C@@H](OC(=O)c2cc(O)c(O)c(OC(=O)c3cc(O)c(O)c(O)c3)c2)[C@@H]1OC(=O)c1cc(O)c(O)c(OC(=O)c2cc(O)c(O)c(O)c2)c1)c1cc(O)c(O)c(OC(=O)c2cc(O)c(O)c(O)c2)c1 [tannic acid]
alpha-Gal epitope [2]; after 30 minutes
  antigens inactivated: 67.7±7.1%
alpha-Gal epitope [2]; after 1 hour
  antigens inactivated: 71.8±2.2%
alpha-Gal epitope [2]; after 3 hours of incubation
  antigens inactivated: 80.6±1.8%
